Measurements: patent US7368439B2, “Dinucleoside poly(borano)phosphate derivatives and uses thereof” (BAR - ILAN University, priority 2005, dated 2008)
Like-named read-outs stand apart in the source and are kept apart here. Values belong to the compound of their own block, whether it stands above or below them.

Legend:
[1] = system: Diet-Induced Obesity (DIO) mouse model; assay: Glycemic response of DIO mice in the Oral Glucose Tolerance Test after a single intravenous administration; type: in vivo
Description: C57BL/6 male mice (Charles River Canada, St-Constant, Qc, Canada) were received at 7-8 weeks of age and fed a high fat diet (60% of calories from fat) for 6-8 weeks to induce hyperglycemia and obesity (Surwit et al., 1988). Blood glucose was checked and animals with readings between 200 and 220 mg/dl were included in the study. The animals were randomized based on their body weight and glycemic values, into control and treatment groups (n=6-8). The animals received a single intravenous injection of the test compound one minute prior to the Oral Glucose Tolerance Test (OGTT). The control group received vehicle (saline) alone. Blood samples (one drop) were collected from the tail vein prior to the administration of the test compound and at 5, 10, 20, 30, 60, 90 and 120 minutes post-glucose administration. Whole blood glucose values were determined using a hand-held glucometer (Model OneTouch Ultra, LifeScan). All data are expressed as mean±SEM.
FIG. 2 is an area under the curve (AUC) graph of delta glycemia. It is a representation of the area under the curve of the responses seen during the oral glucose tolerance test challenge. The data are corrected for the baseline blood glucose levels of the individual mice. […] If the area under the curves is integrated, the response can be quantified as represented in the bar graph.

[2] = for calculated hydrolysis rate constant: pH 1.4/37° C., KCl/HCl buffer, sodium salts, pseudo first-order fit
Description: To evaluate chemical stability at pH 1.4, sodium salts of dinucleoside poly(borano)phosphate analogues were dissolved in KCl/HCl buffer (pH 1.4, 0.44 ml) and D2O (0.06 ml). The final pH was then adjusted with HCl and measured with a pH-meter (final concentration 0.016 M). ^31P NMR spectra of Ap3(β-B)A and Up3(β-B)U were recorded during 3 h at 10 min time intervals at 37° C. Number of scans in all experiments was 1200, number of experiments was 17. The hydrolysis rate was determined by measurements of absolute integration of Pα (2.5 ppm) signal as a function of time and was fitted to a pseudo-first-order reaction model.
^31P NMR spectra of Ap5(β-B)A was recorded during 1 h at 10 min time intervals at 37° C. Number of scans in all experiments was 1200, number of experiments was 6. The hydrolysis rate was determined by measurement the absolute intagration of Pβ signal as a function of time and was fitted to a pseudo-first-order reaction model.
Chemical stability under conditions simulating gastric juice (pH 1.4/37° C.) was evaluated with Ap3(β-B)A, 1, Up3(β-B)U, 2, and Ap5(γ-B)A, 3 sodium salts, in KCl/HCl buffer. ^31P NMR spectra was recorded during 3 h at 10 min intervals. […] The intensity changes of the monophosphate ^31P signal with time were fit to a pseudo first-order exponential decay rate equation with respect to 1/2 concentration.

[3] = system: human islets; assay: Insulin secretion using human islets; type: cell-based; conditions: 12 mM glucose; 10^−13 and 10^−12 M; 30 minutes at 37° C.; FIG. 3
Description: Islets aliquots were supplemented with 1 ml of medium containing 2.2, 12 or 22 mM glucose, or 22 mM glucose with 3-isobutyl-1-methylxanthine (IBMX) as a positive control, in the presence of various concentration of Up3(β-B)U tri-sodium salt, and incubated for 30 minutes at 37° C. in a humidified atmosphere containing 5% CO2. The medium was then collected for determination of insulin level; islets were collected for determination of protein; and insulin secretion was normalized to total protein. Basal insulin secretion was determined by incubating the islets in the presence of buffer containing 2 mM glucose.
Islets were kept in CMRL 1066 medium containing 5.5 mM glucose for 2-3 days and then washed out with medium containing 2.2 mM glucose. Islet aliquots were supplemented with 1 ml of medium containing 2.2, 12 or 22 mM glucose or 22 mM glucose with 3-isobutyl-1-methylxanthine (IBMX), in the presence or absence of the different secretagogues. The experiments were done in triplicate. Islets were incubated for 30 minutes at 37° C. in a humidified atmosphere containing 5% CO2. After incubation, the medium was collected for determination of insulin level. Quantification of insulin was done in duplicate using human insulin ELISA kit (ALPCO). […] Basal insulin secretion was determined by incubating the islets in the presence of buffer with 2 mM glucose. […]

[4] = system: INS-1 cells; assay: Glucose-dependent stimulation of insulin secretion in INS-1 cells; type: cell-based; conditions: 6 mM glucose
Description: Compound 2, sodium salt, was tested for insulinotropic effect on insulin-secreting INS-1 cells (Hohmeier et al., 2000). Briefly, the cells were plated at a density of 2×10^5 in 12-well plates in RPMI with 10% fetal calf serum containing 11 mM glucose and maintained at 37° C. in a humidified atmosphere containing 5% CO2 for 2 days. The medium was removed on the third day post-plating and replaced with RPMI containing 3 mM glucose with 10% fetal calf serum. The cells were incubated for an additional 24 hours at 37° C. in a humidified atmosphere containing 5% CO2. On the fourth day post-plating, the medium was removed and replaced with Krebs-Ringer bicarbonate Hepes buffer (pH 7.4) containing 2 mM glucose. The cells were incubated for 30 min, and then the buffer was removed and replaced with Krebs-Ringer bicarbonate Hepes buffer (pH 7.4) with 6 mM glucose containing the test compound at various concentrations. The cells were incubated for 1 hour. Basal insulin secretion was determined by incubating the cells in the presence of buffer with 2 mM glucose. The presence of glucose at 6 and 10 mM stimulated insulin secretion and served as the reference control and positive control, respectively. A positive stimulatory response by the test compound was taken as the response above that elicited by 6 mM glucose.

[5] = pH 7.4/37° C., Tris/HCl buffer; for deboranation products: 4 weeks; for decomposition: 4 weeks (one month), sodium salts
Description: Dinucleosides poly(borano)phosphates tri- or penta-sodium salts were dissolved in Tris/HCl buffer (pH 7.4, 0.45 ml), and D2O (0.6 ml). pH 7.4 was then adjusted with HCl and measured with a pH-meter. Final analogue concentration was about 0.02 M. ^31P NMR spectra were recorded during 4 weeks at 3-7 days intervals at 37° C. Percentage of phosphoester hydrolysis of Ap3(β-B)A/Up3(β-B)U is based on absolute integrations of monophosphate signal (2.5 ppm). Percentage of phosphodiester hydrolysis of dinucleoside pentaphosphate is based on absolute integrations of Pα signal of ADP or UDP products.
Thus, ^31P NMR spectra of Up3(β-B)U, 2, and Ap5(β-B)A, 3, tri- and penta-sodium salts, respectively, in Tris/HCl buffer (in H2O), pH 7.4, were recorded during 4 weeks at 1- to 3-day intervals at 37° C.

Compound: diuridine tri(borano)phosphate [compound 2]
activity on glycemia at low concentration ([1]; 100 ng/kg intravenous, activity dropping as the concentration decreased): active at low concentration
effect on the increase of glycemia (delta glycemia, AUC) ([1]; DIO-mice, intravenous, one minute prior to the glucose challenge, FIG. 2): partially inhibited the increase of the glycemia
calculated hydrolysis rate constant [2]: 0.000165 s⁻¹
insulin secretion by human islets [3]: able to promote significant insulin secretion
insulin secretion versus background ([4]; 1 hour incubation, FIG. 1): stimulated insulin secretion above background levels
activity on insulin secretion at low concentrations ([4]; 10^−12 and 10^−11 M, activity dropping as the concentration increased): active at low concentrations
deboranation products [5]: No deboranation products could be detected

Compound: BP(=O)(OP(=O)(O)OP(=O)(O)OCC1OC(n2cnc3c(N)ncnc32)C(O)C1O)OP(=O)(O)OP(=O)(O)OCC1OC(n2cnc3c(N)ncnc32)C(O)C1O (stereo not shown) [compound 3, diadenosine penta(borano)phosphate]
fold less hydrolytically stable compared to Ap3(β-B)A ([2]; gastric juice conditions): about 4 fold
deboranation products [5]: No deboranation products could be detected
decomposition [5]: less than 15%
decomposition ([5]; listed as Ap5(γ-B)A): less than 10%

fold less stable than ATP-α-B analogues ([2]; under gastric juice conditions): 2 fold
Compound: diadenosine tri(borano)phosphate [compound 1]
calculated hydrolysis rate constant [2]: 0.000152 s⁻¹
